Test results: patent publication US8063071B2 (GlaxoSmithKline, LLC, priority 2007, dated 2011)
Structures can show the parent of a compound that is named as a salt.

Target: T1, Recombinant human IKKβ (residues 1-737) (Homo sapiens, UniProt O14920)
T1 construct: Recombinant human IKKβ (residues 1-737); GST (C); made in house
T1 sequence (O14920 1-737): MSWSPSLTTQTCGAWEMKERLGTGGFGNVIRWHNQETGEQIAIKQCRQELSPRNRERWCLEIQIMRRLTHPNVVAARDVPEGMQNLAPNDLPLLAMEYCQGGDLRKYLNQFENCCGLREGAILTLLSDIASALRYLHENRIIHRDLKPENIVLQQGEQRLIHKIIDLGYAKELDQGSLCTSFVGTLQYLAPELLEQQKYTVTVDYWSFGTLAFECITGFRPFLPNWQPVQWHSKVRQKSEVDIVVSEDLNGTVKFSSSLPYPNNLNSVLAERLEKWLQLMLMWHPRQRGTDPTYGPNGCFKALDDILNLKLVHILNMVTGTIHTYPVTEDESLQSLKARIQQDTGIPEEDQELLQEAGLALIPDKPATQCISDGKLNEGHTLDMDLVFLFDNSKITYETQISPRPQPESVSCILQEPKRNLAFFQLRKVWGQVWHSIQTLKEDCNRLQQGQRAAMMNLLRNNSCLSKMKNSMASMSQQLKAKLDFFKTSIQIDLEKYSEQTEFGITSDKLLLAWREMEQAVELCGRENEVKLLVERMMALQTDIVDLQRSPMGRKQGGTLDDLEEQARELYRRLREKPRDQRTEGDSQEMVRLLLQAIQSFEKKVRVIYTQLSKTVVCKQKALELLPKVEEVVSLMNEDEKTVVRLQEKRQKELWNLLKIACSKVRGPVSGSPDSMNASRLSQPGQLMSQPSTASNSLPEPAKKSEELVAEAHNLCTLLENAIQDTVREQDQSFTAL
Experiment: IKK2 assay (TR-FRET)
Type: biochemical
Details: ATP 1 μM final, read-out: pIC50 against IKK2 (converted)
Method: Recombinant human IKKβ (residues 1-737) was expressed in baculovirus as a C-terminal GST-tagged fusion protein, and its activity was assessed using a time-resolved fluorescence resonance energy transfer (TR-FRET) assay. Briefly, IKK2 (0.5 nM-5 nM final) diluted in assay buffer (50 mM HEPES, 10 mM MgCl2, 1 mM CHAPS pH 7.4 with 1 mM DTT and 0.01% w/v BSA) was added to wells containing various concentrations of compound or DMSO vehicle (1.7% final). The reaction was initiated by the addition of GST-IB substrate (25 nM final)/ATP (1 μM final), in a total volume of 6 μl. The reaction was incubated for 15 minutes at room temperature, then terminated by the addition of 3 μl of detection reagent in buffer containing 50 mM EDTA (100 mM HEPES pH 7.4, 150 mM NaCl, 50 mM EDTA and 0.01% w/v BSA) containing antiphosphoserine-IB-32/36 monoclonal antibody 12C2 (Cell Signalling Technology, Beverly Mass., USA) labelled with W-1024 europium chelate (Wallac OY, Turku, Finland), and an APC-labelled anti-GST antibody (Prozyme, San Leandro, Calif., USA) was added and the reaction was further incubated for 60 minutes at room temperature. The degree of phosphorylation of GST-IB was measured using a BMG Rubystar plate reader (BMG Labtech, Aylesbury, UK) as a ratio of specific 665 nm energy transfer signal to reference europium 620 nm signal.

| Structure (SMILES) | IC50 [µM] |
| --- | --- |
| CCS(=O)(=O)N1CCC(c2c[nH]c3c(C(N)=O)cc(-c4cc(F)cc(CNCC(C)C)c4)cc23)CC1 [Example 286, 3-[1-(ethylsulfonyl)-4-piperidinyl]-5-(3-fluoro-5-{[(2-methylpropyl)amino]methyl}phenyl)-1H-indole-7-carboxamide trifluoroacetate] | ≤ 10 |
| CCS(=O)(=O)N1CCC(c2c[nH]c3c(C(N)=O)cc(-c4ccc5c(c4)CN(C(C)C(C)C)C5)cc23)CC1 (stereo not shown) [Example 421, 5-[2-(1,2-dimethylpropyl)-2,3-dihydro-1H-isoindol-5-yl]-3-[1-(ethylsulfonyl)-4-piperidinyl]-1H-indole-7-carboxamide] | ≤ 10 |
| CCS(=O)(=O)N1CCC(c2c[nH]c3c(C(N)=O)cc(-c4ccc(N5CCNCC5)nc4)cc23)CC1 [Example 135, 3-[1-(ethylsulfonyl)-4-piperidinyl]-5-[6-(1-piperazinyl)-3-pyridinyl]-1H-indole-7-carboxamide trifluoroacetate] | ≤ 10 |
| CCS(=O)(=O)N1CCC(c2c[nH]c3c(C(N)=O)cc(-c4ccc(N(C)C)nc4)cc23)CC1 [Example 226, 5-[6-(dimethylamino)-3-pyridinyl]-3-[1-(ethylsulfonyl)-4-piperidinyl]-1H-indole-7-carboxamide trifluoroacetate] | ≤ 10 |
| CCS(=O)(=O)N1CCC(c2c[nH]c3c(C(N)=O)cc(-c4csc(CN(C)C[C@H](C)O)c4)cc23)CC1 [Example 413, 3-[1-(ethylsulfonyl)-4-piperidinyl]-5-(5-{[[(2S)-2-hydroxypropyl](methyl)amino]methyl}-3-thienyl)-1H-indole-7-carboxamide trifluoroacetate] | ≤ 10 |
| CCS(=O)(=O)N1CCC(c2c[nH]c3c(C(N)=O)cc(-c4cc(C#N)cc(CNCC(F)(F)F)c4)cc23)CC1 [Example 41, 5-(3-cyano-5-{[(2,2,2-trifluoroethyl)amino]methyl}phenyl)-3-[1-(ethylsulfonyl)-4-piperidinyl]-1H-indole-7-carboxamide trifluoroacetate] | ≤ 10 |
| CCS(=O)(=O)N1CCC(c2c[nH]c3c(C(N)=O)cc(-c4cc(CNC)c(OC)c(OC)c4)cc23)CC1 [Example 54] | ≤ 10 |
| CCS(=O)(=O)N1CCC(c2c[nH]c3c(C(N)=O)cc(-c4csc(CN(C)CCNC(C)=O)c4)cc23)CC1 [Example 410, 5-(5-{[[2-(acetylamino)ethyl](methyl)amino]methyl}-3-thienyl)-3-[1-(ethylsulfonyl)-4-piperidinyl]-1H-indole-7-carboxamide trifluoroacetate] | ≤ 10 |
| CCS(=O)(=O)N1CCC(c2c[nH]c3c(C(N)=O)cc(-c4ccc(CN[C@H](C)C(C)C)s4)cc23)CC1 [Example 183, 5-[5-({[(1R)-1,2-dimethylpropyl]amino}methyl)-2-thienyl]-3-[1-(ethylsulfonyl)-4-piperidinyl]-1H-indole-7-carboxamide] | ≤ 10 |
| CCS(=O)(=O)N1CCC(c2c[nH]c3c(C(N)=O)cc(-c4csc(CN5CCCCC5)n4)cc23)CC1 [Example 354, 3-[1-(ethylsulfonyl)-4-piperidinyl]-5-[2-(1-piperidinylmethyl)-1,3-thiazol-4-yl]-1H-indole-7-carboxamide] | ≤ 10 |
| CCS(=O)(=O)N1CCC(c2c[nH]c3c(C(N)=O)cc(-c4ccc(CNC[C@@H](C)O)cc4)cc23)CC1 [Example 152, 3-[1-(ethylsulfonyl)-4-piperidinyl]-5-[4-({[(2R)-2-hydroxypropyl]amino}methyl)phenyl]-1H-indole-7-carboxamide trifluoroacetate] | ≤ 10 |
| CCS(=O)(=O)N1CCC(c2c[nH]c3c(C(N)=O)cc(-c4cc(CNC(C)C)c(OC)c(OC)c4)cc23)CC1 [Example 53, 3-[1-(ethylsulfonyl)-4-piperidinyl]-5-[3-{[(1-methylethyl)amino]methyl}-4,5-bis(methyloxy)phenyl]-1H-indole-7-carboxamide] | ≤ 10 |
| CCNCc1ccc(-c2cc(C(N)=O)c3[nH]cc(C4CCN(S(=O)(=O)CC)CC4)c3c2)cc1 [Example 145, 5-{4-[(ethylamino)methyl]phenyl}-3-[1-(ethylsulfonyl)-4-piperidinyl]-1H-indole-7-carboxamide] | ≤ 10 |
| CCS(=O)(=O)N1CCC(c2c[nH]c3c(C(N)=O)cc(-c4cc(F)cc(CN5CCCC5)c4)cc23)CC1 [Example 289, 3-[1-(ethylsulfonyl)-4-piperidinyl]-5-[3-fluoro-5-(1-pyrrolidinylmethyl)phenyl]-1H-indole-7-carboxamide trifluoroacetate] | ≤ 10 |
| CCS(=O)(=O)N1CCC(c2c[nH]c3c(C(N)=O)cc(-c4ccc(CNCCC(C)(C)C)s4)cc23)CC1 [Example 199, 5-(5-{[(3,3-dimethylbutyl)amino]methyl}-2-thienyl)-3-[1-(ethylsulfonyl)-4-piperidinyl]-1H-indole-7-carboxamide] | ≤ 10 |
| CCS(=O)(=O)N1CCC(c2c[nH]c3c(C(N)=O)cc(-c4csc(CN(C)[C@@H]5CCC[C@H]5O)c4)cc23)CC1 [Example 411, 3-[1-(ethylsulfonyl)-4-piperidinyl]-5-(5-{[[(1R,2R)-2-hydroxycyclopentyl](methyl)amino]methyl}-3-thienyl)-1H-indole-7-carboxamide trifluoroacetate] | ≤ 10 |
| CC(C)S(=O)(=O)N1CCC(c2c[nH]c3c(C(N)=O)cc(-c4csc(CN(C)CC(N)=O)c4)cc23)CC1 [Example 398, 5-(5-{[(2-amino-2-oxoethyl)(methyl)amino]methyl}-3-thienyl)-3-{1-[(1-methylethyl)sulfonyl]-4-piperidinyl}-1H-indole-7-carboxamide] | ≤ 10 |
| CCS(=O)(=O)N1CCC(c2c[nH]c3c(C(N)=O)cc(-c4cnn(CCN(C)CCO)c4)cc23)CC1 [Example 268, 3-[1-(ethylsulfonyl)-4-piperidinyl]-5-(1-{2-[(2-hydroxyethyl)(methyl)amino]ethyl}-1H-pyrazol-4-yl)-1H-indole-7-carboxamide] | ≤ 10 |
| CCS(=O)(=O)N1CCC(c2c[nH]c3c(C(N)=O)cc(-c4cc(CN(C)C)c(OC)c(OC)c4)cc23)CC1 [Example 51, 5-[3-[(dimethylamino)methyl]-4,5-bis(methyloxy)phenyl]-3-[1-(ethylsulfonyl)-4-piperidinyl]-1H-indole-7-carboxamide] | ≤ 10 |
| CCS(=O)(=O)N1CCC(c2c[nH]c3c(C(N)=O)cc(-c4ccc(OC)c(CNC)c4)cc23)CC1 [Example 266, 3-[1-(ethylsulfonyl)-4-piperidinyl]-5-[3-[(methylamino)methyl]-4-(methyloxy)phenyl]-1H-indole-7-carboxamide trifluoroacetate] | ≤ 10 |
| CCS(=O)(=O)N1CCC(c2c[nH]c3c(C(N)=O)cc(-c4ccc(OC)c(CN5CCOCC5)c4)cc23)CC1 [Example 264, 3-[1-(ethylsulfonyl)-4-piperidinyl]-5-[4-(methyloxy)-3-(4-morpholinylmethyl)phenyl]-1H-indole-7-carboxamide trifluoroacetate] | ≤ 10 |
| CCS(=O)(=O)N1CCC(c2c[nH]c3c(C(N)=O)cc(-c4ccc(CN[C@@H](C)CO)cc4)cc23)CC1 [Example 150, 3-[1-(ethylsulfonyl)-4-piperidinyl]-5-[4-({[(1S)-2-hydroxy-1-methylethyl]amino}methyl)phenyl]-1H-indole-7-carboxamide trifluoroacetate] | ≤ 10 |
